Experimental data published in patent publication US20230263817A1, “HIGH DOSE NICOTINAMIDE ADENINE DINUCLEOTIDE (NAD) PRECURSOR REGIMENS FOR REDUCTION OF INFLAMMATION IN HUMAN PATIENTS WITH PREEXISTING INFLAMMATION” (University of Washington, priority 2021, published 2023).

Tests used:
healthy PBMCs = experiment: Seahorse Mito Stress Test (OCR) of healthy PBMCs after 4-hour in vitro treatment; format: cell-based, human; conditions: for PBMC maximal OCR: 4-hour increasing concentrations of recombinant human IL1B or IL18
Description: (§1) PBMC and Monocyte isolation. 30-60 ml of fasting blood was collected into EDTA-containing Vacutainers (BD Mfr #364606). Blood then was diluted (1:1) with RPMI medium (Corning; Cat #17-105-CV) and applied to Histopaque gradient medium (Sigma-Aldrich; Cat #10771) using SepMate-50 (STEMCELL Technologies), and centrifuged at 1200 g for 10 minutes. Top layer contained the enriched peripheral blood mononuclear cells (PBMCs) which were collected and followed by centrifugation at 300 g for 10 minutes. The pellet was resuspended with ACK lysis buffer (Gibco; Cat. A1049201) and incubated at room temperature for 5 minutes to remove residual red blood cells. Next, the enriched PBMCs were washed twice with RPMI medium. All PBMC samples were subjected to the baseline Seahorse Mito Stress Test. When available, the remaining cells were used for cytokine mRNA quantitative PCR and in vitro assays. For monocyte isolation, a magnetic bead-based negative-selection monocyte isolation kit (Miltenyi Biotec, 130-096-537) was used per the manufacturer's instructions. Briefly, antibody-conjugated magnetic bead solution was added to isolated PBMCs resuspended in RPMI containing 0.5% BSA and incubated for 20 minutes at 4° C., followed by magnetic column binding and elution. The procedure was repeated once to improve the purity of monocytes. The monocytes were washed once with RPMI prior to subsequent experiments.
Seahorse Mito Stress Test. Oxygen consumption rate (OCR) of freshly isolated PBMCs was assessed using a Seahorse XFe24 analyzer (Agilent Technologies). Briefly, purified PBMCs were resuspended in Seahorse base medium (Agilent Technologies, supplemented with 1 mM pyruvate, 2 mM glutamine, and 10 mM glucose, pH 7.4), and added 10^6 cells/well at equal volume of 500 μL in a Seahorse 24-well plate. The cells were maintained in a non-CO2 incubator and allowed to settle for 30 minutes at 37° C. Next, the plate was centrifuged at 40 g for 10 minutes at room temperature without application of the brake to help cells attach to the bottom of the plate. Drugs used in the assay: 5 μM oligomycin A (Sigma-Aldrich; Cat. 75351), 3 μM Trifluoromethoxy carbonylcyanide phenylhydrazone (FCCP) (Sigma-Aldrich; Cat. C2920), 1 μM Rotenone (Sigma-Aldrich; Cat. […]), 1 μM Antimycin A (Sigma-Aldrich; Cat. […]), 0.5 mM TMPD (Sigma-Aldrich; Cat. T7394) and 10 mM Ascorbate (Sigma-Aldrich; Cat. 95209).
(§2) PBMC and Monocyte Culture. Freshly isolated PBMCs or Monocytes from healthy or HF subjects were resuspended with RPMI medium plus 10% heat inactivated FBS. PBMCs (10^6 cells/well) were seeded in Seahorse 24-well plates and incubated at 37° C. in CO2 incubator with various proinflammatory triggers (Vehicle, MitoDAMP, LPS) and compounds (NR, MCC 950, MitoTempo, or LMT-28). After 4 hours incubation, the plate was centrifuged at 40 g for 10 minutes at room temperature without application of the brake to help cells attach to the bottom of the plate. The cells were washed twice and then brought up to 500 μL using Seahorse base medium (Agilent Technologies, supplemented with 1 mM pyruvate, 2 mM glutamine, and 10 mM glucose, pH 7.4).

[1] = system: NLRP3 and pro-inflammatory cytokine (IL1β, IL6, IL18, TNFα) mRNA in healthy PBMCs; experiment: RT-qPCR of NLRP3 and pro-inflammatory cytokine mRNA in healthy PBMCs treated in vitro; format: cell-based, human; conditions: 4-hour MitoDAMP with 0.5 mM MitoTempo relative to MitoDAMP alone
Description: as §2
IL6 ELISA. Isolated PBMCs (4×10^6 cells per sample) from healthy or HF participants were resuspended in RPMI medium containing 10% heat-inactivated FBS and treated with various proinflammatory triggers (Vehicle, MitoDAMP, LPS) and compounds (NR, MCC 950, MitoTempo, or LMT-28) to final PBMC concentrations of 10×10^6 cells per mL. See below for detailed descriptions of the reagents. The samples were incubated in Eppendorf tubes at 37° C. in a 5% CO2 incubator with caps open for times designated in the brief description of drawings. The cultured PBMC samples were centrifuged at 8,000 RPM at room temperature. The supernatant was used for ELISA per the manufacture protocol using R&D Systems human IL6 kit (Cat #DY206-05). The cell pellets were stored in −80° C.
RNA Isolation and Quantitative PCR analysis. Total RNA was isolated from frozen PBMC pellets using Trizol (Invitrogen) per the manufacturer's instructions, and cDNA was synthesized using iScript™ Reverse Transcription Supermix (Bio-rad) per the manufacturer's instructions. Real-time PCR was performed in the Corbett rotor gene 6000 real-time PCR machine using iQ™ SYBR® Green Supermix (Bio-rad) and expression levels of the indicated genes were calculated using the ΔΔCt method.

Complex I = conditions: healthy PBMC, 4-hour IL6 (1 ng/mL) vs vehicle
Description: Complex I in vitro assay. This assay was performed using Abcam Complex I Enzyme Activity Microplate Assay Kit (ab109721), per the manufacturer's protocol. Briefly, following a 4-hour treatment with vehicle or IL6, 5×10^6 PBMCs were washed with PBS and lysed by detergent for 30 minutes on ice, followed by centrifugation at 16,000 g for 20 minutes at 4° C. Supernatant was taken for protein concentration determination. 12.5 μg of total protein in a final volume of 200 μL was incubated in microplates precoated with anti-Complex I antibody for 3 hours at room temperature. Post-washing step, NADH and dye were added, and optical density (OD) was serially measured at 450 nm over 1 hour. The slope of the curve within the linear range was recorded as Complex I activity.

[2] = system: monocytes isolated from healthy subjects; experiment: Maximal respiration of isolated monocytes after 4-hour IL6 treatment; format: cell-based; conditions: 4-hour 1 ng/mL recombinant human IL6
Description: as §1, with “Briefly, antibody-conjugated magnetic bead solution was added to isolated PBMCs resuspended in RPMI containing 0.5% BSA and incubated for 20 minutes at 4° C., followed by magnetic column binding and elution. The procedure was repeated once to improve the purity of monocytes. The monocytes were washed once with RPMI prior to subsequent experiments.” left out
Seahorse Mito Stress Test. Oxygen consumption rate (OCR) of freshly isolated PBMCs was assessed using a Seahorse XFe24 analyzer (Agilent Technologies). […]

Compound: CC(C)(O)c1coc(S(=O)(=O)NC(=O)Nc2c3c(cc4c2CCC4)CCC3)c1 [MCC950]
- maximal OCR (healthy PBMCs; healthy PBMC, 4-hour MitoDAMP with 1 μM MCC950): marginally improved

Compound: CC1(C)CC(NC(=O)C[P+](c2ccccc2)(c2ccccc2)c2ccccc2)CC(C)(C)N1[O] [MitoTempo]
- cytokine gene expressions [1]: markedly attenuated
- maximal OCR (healthy PBMCs; healthy PBMC, 4-hour MitoDAMP with 0.5 mM MitoTempo vs MitoDAMP alone): did not change

Compound: IL18: human recombinant IL18, purchased from R&D Systems
- PBMC maximal OCR (healthy PBMCs; healthy PBMCs): did not result in a significant decrease

Compound: recombinant IL1β: human recombinant IL1β, purchased from R&D Systems
- PBMC maximal OCR (healthy PBMCs; healthy PBMCs): did not result in a significant decrease

Compound: recombinant IL6: human recombinant IL6, purchased from Gibco
- Complex I enzymatic activity (Complex I): reduced
- maximal OCR of monocytes [2]: decreased
- OCR through Complex IV (TMPD and ascorbate as electron donors) (healthy PBMCs; healthy PBMC, 4-hour IL6 (1 ng/mL) vs vehicle): no difference
- maximal OCR (healthy PBMCs; healthy PBMCs, 4-hour increasing concentrations of human recombinant IL6): dose-dependent decline
- lowest IL6 concentration with significant reduction of maximal OCR (healthy PBMCs; healthy PBMCs, 4-hour treatment): 0.1 ng/mL
